Reference: US7217688B2, “Methods and compositions for derepression of IAP-inhibited caspase” (The Burnham Institute, priority 2005, dated 2007)
Square brackets hold non-standard residues; d marks the D form. Ends that are not written are not given here. Peptide text beside a SMILES is read from it. * marks the point of attachment. 5TAMRA = CN(C)c1ccc2c(c1)Oc1cc(N(C)C)ccc1C21OC(=O)c2cc(C(=O)*)ccc21; Phe(4-Cl) = N[C@@H](Cc1ccc(Cl)cc1)C(=O)O; 2Nal = N[C@@H](Cc1ccc2ccccc2c1)C(=O)O; Fmoc = O=C(OCC1c2ccccc2-c2ccccc21)*; 2Thi = N[C@@H](Cc1cccs1)C(=O)O

What was measured:
[1] = system: mouse embryo fibroblasts (MEFs); assay: mechanism-based toxicity in MEFs from XIAP -/- and wild type mice (MTT); assay type: cell-based; conditions: MEFs with or without SV40 large T antigen
Method: Cells were either tested directly at low passage (FIGS. 38A and C) or after transformation by infection with a retrovirus encoding SV40 large T antigen (FIGS. 38B and D). […] Cell viability was measured by MTT assay, expressing data as a percentage relative to control, untreated cells. Data shown in FIG. 38A–D represent mean±standard deviation of triplicate determinations.

[2] = system: NCI panel of 60 tumor cell lines; conditions: same assay, comparison drug; cited from earlier work
[3] = system: ALVA31 prostate cancer cells; assay: ALVA31 cell viability (XTT dye-reduction and trypan blue exclusion); assay type: cell-based; conditions: peptides 40 μM, VP-16 100 μM, 24 hrs
Method: The in vivo effects of TPI 792-33 or TPI 792-35, either individually or in combination with the cytotoxic anticancer drug VP-16 (etoposide), on derepression of XIAP-inhibited caspase and viability of ALVA31 cells was determined as follows. ALVA31 prostate cancer cells were seeded onto 96 well plates (10^4 cells/well) in 100 μL RPMI containing 2.5% fetal bovine serum (FBS). […] After another 24 hrs incubation, cell viability was measured by the XTT dye-reduction assay (Roche, Molecular Biochemicals; Indianapolis, Ind.) and trypan blue dye exclusion assay.

GST-XIAP BIR2 = assay: binding of XIAP-BIR2 to biotinylated peptides on Neutravidin plates; conditions: biotinylated peptides adsorbed to Neutravidin-coated plates
Source text: Bound GST polypeptides were detected with an anti-GST antibody.

full length XIAP = full length XIAP (Homo sapiens, UniProt P98170); assay: potency of IAP antagonists at restoring caspase-3 activity / SMAC competition assay (Table VIII); conditions: for EC50: amount of compound necessary to restore caspase-3 activity to 50% of Vmax; for Relative Potency: fold relative to SMAC AVPI tetrapeptide
[4] = system: normal bone marrow mononuclear cells; assay: normal bone marrow cell toxicity (Annexin V); assay type: cell-based; conditions: 5 μM, 20 hours
Method: After incubation, cells were washed, stained with FITC-conjugated Annexin V antibody and propidium iodide, and fluorescence measured by flow cytometry as described above.

Jurkat leukemia cells = assay: Jurkat cell death (Annexin V / propidium iodide flow cytometry); assay type: cell-based; conditions: for % nonviable cells: 20 hours; for cells killed: one day treatment
Method: The following assay was used to test the ability of individual compounds from the TPI 1396 and TPI 1391 libraries to induce apoptosis of cultured tumor cell lines. Each of the compounds listed in Table IX was individually added to Jurkat leukemia cells (6.25×10^5 cells/mL) in RPMI containing 2.5% FBS at various concentrations for 20 hours. After incubation, cells were washed and stained with FITC-conjugated Annexin V antibody and propidium iodide (Biovision; Mountain View, Calif.). Cells were incubated for 20 minutes at room temperature in the dark and fluorescence was measured by flow cytometry (FACScan, Immunocytometry system; Becton-Dickinson; San Jose, Calif.). Cells staining positive for Annexin V were deemed non-viable.

GST-BIR2 (XIAP fragment) = assay: fluorescence polarization binding of rhodamine-SMAC
Method: Assays were run in 50 mM Tris @ pH 7.2/100 mM NaCl/0.1% BSA.

XIAP-inhibited caspase-3 = molecular target: T1, XIAP-inhibited caspase-3 (Homo sapiens, UniProt P98170); assay: caspase derepression assay (XIAP-inhibited caspase-3, Ac-DEVD-AFC hydrolysis); assay type: biochemical
T1 construct: in the derepression assay using full length XIAP; made in house; host or cells: bacteria
Method: Caspase activity was assayed by release of 7-amino-4-trifluoromethyl-coumarin (AFC) from Ac-DEVD-AFC synthetic peptide using a Molecular Devices Spectromax 340 (see Zhou et al., J. Biol. Chem. 272:7797–7800 (1997)). […] The ratio of Vmax for hydrolysis of Ac-DEVD-AFC in the presence and absence of the candidate mixture was calculated and used to identify those that contain an agent that derepresses an IAP-inhibited caspase.
Screening of each mixture from the DCR390, TPI 1239 or TPI 1328 library, respectively, using the above described assay was carried out as follows. Each mixture was aliquoted in a 25 microliter volume and in duplicate to a well of a 96 well microtiter plate. […] Fluorescence of liberated AFC was immediately detected from each well for 30 minutes at 30 second intervals. The Vmax for hydrolysis of AC-DEVD-AFC from each well was measured using the softmax software package. Results of the screen for the DCR390 library are shown in Table I. Sets of mixtures having the same position fixed with different respective amino acids are arranged in 6 sections identified with the position number. […] The mixture in each section are arranged in descending order according to apparent velocity in the second column.
Briefly, recombinant proteins were produced in bacteria and purified as described, for example, in Deveraux et al., Nature 388:300–304(1997). […] Generation of fluorogenic AFC (7-amino-4-trifluoromethyl coumarin) product was measured with a spectrofluorometric plate reader in kinetic mode for 30 minutes at 37° C. using excitation and emission wavelengths of 405 nm and 510 nm, respectively. […] Control reactions lacked XIAP, and all assays were conducted in the linear range of substrate hydrolysis to avoid substrate depletion artifacts.

[5] = system: NCI panel of 60 tumor cell lines; assay: NCI panel of 60 tumor cell lines, protein-based colorimetric assay; parameters: species or system human; conditions: 48 hours
Method: Selected polyphenylurea compounds were tested on the National Cancer Institute (NCI) panel of 60 tumor cell lines (see FIG. 28a and FIG. 29).

[6] = system: PPC1 prostate cancer cells; assay: PPC1 tumor xenograft; assay type: in vivo, Balb/C nu-/nu- mice; conditions: 30 mg/kg i.p. for 2 or 3 days
Source text: Similar data was obtained using TPI 1396-22 (see FIG. 33a and 33b). […] In FIG. 33b, the mice were sacrificed at day 19 and the tumors excised and weighed.

full length XIAP, sequence (P98170 whole entry): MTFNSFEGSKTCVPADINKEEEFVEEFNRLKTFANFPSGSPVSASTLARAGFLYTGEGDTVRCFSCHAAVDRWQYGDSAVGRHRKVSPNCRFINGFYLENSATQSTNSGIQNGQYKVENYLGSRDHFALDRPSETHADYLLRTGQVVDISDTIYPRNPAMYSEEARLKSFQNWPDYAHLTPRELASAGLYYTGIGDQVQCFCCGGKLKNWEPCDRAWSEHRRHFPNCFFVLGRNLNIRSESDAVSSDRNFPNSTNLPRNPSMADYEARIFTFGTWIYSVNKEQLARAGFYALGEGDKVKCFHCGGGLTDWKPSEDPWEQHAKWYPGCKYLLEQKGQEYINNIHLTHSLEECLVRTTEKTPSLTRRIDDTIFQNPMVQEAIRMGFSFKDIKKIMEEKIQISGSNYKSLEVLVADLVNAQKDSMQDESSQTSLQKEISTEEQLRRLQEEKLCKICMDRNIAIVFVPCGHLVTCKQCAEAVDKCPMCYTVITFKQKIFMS
T1 sequence (P98170 whole entry): as above
GST-XIAP BIR2, sequence (P98170 124-240 limits assumed): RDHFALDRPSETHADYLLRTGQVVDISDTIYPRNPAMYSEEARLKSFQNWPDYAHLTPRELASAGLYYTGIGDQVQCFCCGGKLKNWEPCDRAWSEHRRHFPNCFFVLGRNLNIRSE

Compound: COc1cccc2c1C(=O)c1c(O)c3c(c(O)c1C2=O)C[C@@](O)(C(C)=O)C[C@@H]3O[C@H]1C[C@H](N)[C@H](O)[C@H](C)O1 [daunorubicin]
- selectivity for transformed versus non-transformed cells [1]: do not display selectivity for transformed cells

Compound: COc1cc([C@@H]2c3cc4c(cc3[C@@H](O[C@@H]3O[C@@H]5CO[C@@H](C)O[C@H]5[C@H](O)[C@H]3O)[C@H]3COC(=O)[C@H]23)OCO4)cc(OC)c1O [VP-16, etoposide]
- mean LD50 in the NCI panel of 60 tumor cell lines [2]: 200 ± 2.5 µM
- effect on cell viability, agent alone [3]: essentially no effect

Compound: TPI 1554-1: biotinylated TPI 1453-1 ([2Thi][2Nal][Phe(4-Cl)]K(Fmoc); also: biotinylated (site not given here))
- binding to XIAP-BIR2 (GST-XIAP BIR2): comparable to the binding of SMAC peptides

Compound: CC(C)CC1CN(C(CNCc2ccccc2)Cc2ccc3ccccc3c2)C(=O)C(=O)N1CCc1cccc(C(F)(F)F)c1 (stereo not shown) [TPI 1391-28]
- EC50 (full length XIAP): 25.1 µM
- Relative Potency (full length XIAP): 5
- toxicity to normal bone marrow cells [4]: little toxicity
- % nonviable cells (Jurkat leukemia cells; 1 μM): 19%
- % nonviable cells (Jurkat leukemia cells; 5 μM (first column headed 5)): 12%
- % nonviable cells (Jurkat leukemia cells; 5 μM (second column headed 5)): 28%
- cells killed (Jurkat leukemia cells; 5 μM): about 45%
- cells killed (Jurkat leukemia cells; 8 μM): ~80%
- % nonviable cells (Jurkat leukemia cells; 10 μM): 55%
- % nonviable cells (Jurkat leukemia cells; 25 μM): 87%
- % nonviable cells (Jurkat leukemia cells; 50 μM): 91%
- EC50 (Jurkat leukemia cells; one-day exposure, 0 to 20 μM, read-out: EC50 for killing Jurkat leukemia cells): ~6.5 µM

Compound: TPI 1554-2: biotinylated TPI 1453-6 ([2Thi][2Nal][dK](Fmoc)K(Fmoc); also: biotinylated (site not given here))
- binding to XIAP-BIR2 (GST-XIAP BIR2): comparable to the binding of SMAC peptides

Compound: CC[C@H](C)[C@H](NC(=O)[C@@H]1CCCN1C(=O)[C@@H](NC(=O)[C@H](C)N)C(C)C)C(=O)N[C@@H](C)C(=O)N[C@@H](CCC(N)=O)C(=O)N[C@@H](CCCCNC(=O)c1ccc2c(c1)C(=O)OC21c2ccc(N(C)C)cc2Oc2cc(N(C)C)ccc21)C(N)=O [Rhodamine-SMAC] (H-AVPIAQK(5TAMRA)-NH2; N-terminus and C-terminus assumed)
- Kd (GST-BIR2 (XIAP fragment)): 20 µM

Compound: COc1ccc(CCN2CCCC2CN(C(=O)Nc2ccccc2)C(CNC(=O)Nc2ccccc2)Cc2ccc3ccccc3c2)cc1 (stereo not shown) [TPI 1396-22]
- Activity (relative caspase-3 activity, ratio of Vmax with compound to Vmax of caspase-3 and XIAP controls) (XIAP-inhibited caspase-3; Table X, R2 = L-Proline): 3.3
- activity in the derepression assay using full length XIAP (XIAP-inhibited caspase-3; active / inactive): active
- EC50 (full length XIAP): 45.3 µM
- Relative Potency (full length XIAP): 2.8
- average LD50 for the 60 cell lines [5]: 11 ± 2.6 µM
- median LD50 for the 60 cell lines [5]: 22 µM
- tumor growth / tumor size [6]: significantly slowed the rate of growth
